Patent USRE48461E1, “Modulation of androgen receptor expression” (Ionis Pharmaceuticals, Inc., priority 2012, dated 2021)

Key:
Type in all cases: cell-based, human
AR mRNA = AR mRNA levels in LMR20 cells (with/without DHT or R1881); conditions: for AR mRNA levels (% baseline value) after treatment with DHT / AR mRNA levels (% baseline value) after treatment with R1881 / AR mRNA levels (% baseline value) of cells without AR agonist treatment: LMR20 cells; for AR mRNA levels (% baseline value) after treatment with DHT: DHT 10 nM 72 hrs; for AR mRNA levels (% baseline value) after treatment with R1881: R1881 10 nM 72 hrs; for AR mRNA levels (% baseline value) of cells without AR agonist treatment: no AR agonist
Procedure: LMR20 cells were plated at 1,500 cells per well in phenol red-free medium with CSS.

[1] = test system: prostate-specific antigen (PSA) mRNA; assay: PSA mRNA levels in LMR20 cells; conditions: for PSA mRNA levels (% baseline value) after treatment with DHT / PSA mRNA levels (% baseline value) after treatment with R1881 / PSA mRNA levels (% baseline value) of cells without AR agonist treatment: LMR20 cells; for PSA mRNA levels (% baseline value) after treatment with DHT: DHT 10 nM 72 hrs; for PSA mRNA levels (% baseline value) after treatment with R1881: R1881 10 nM 72 hrs; for PSA mRNA levels (% baseline value) of cells without AR agonist treatment: no AR agonist
Procedure: LMR20 cells were plated at 1,500 cells per well in phenol red-free medium with CSS. […] Results are presented in Tables 43-45 as mRNA levels expressed as a percentage of the baseline values. mRNA levels may be lowered or increased after treatment.

LNCaP cells = assay: LNCaP cell proliferation, ASO in combination with MDV3100 (Example 20); conditions: Homo sapiens, LNCaP, read-out: inhibited proliferation, MDV3100 with control oligonucleotide ISIS 549148
Procedure: LNCaP cells were plated at 1,000 cells per well. […] ISIS 549148 was included as a negative control. […] After a treatment period of 5 days, the proliferative capacity of the cancer cells was measured with CellTiter 96® AQueous One or CellTiter-Glo® Solution Cell Proliferation kit (Promega), following the manufacturer's instructions. […]

C4-2 cells = assay: C4-2 cell proliferation (complete or CSS+DHT medium); conditions: 5 days; for Proliferation (% untreated control): C4-2 cells
Procedure: After a treatment period of 5 days in complete medium or CSS+1 nM DHT medium, the proliferative capacity of the cancer cells was measured with using CellTiter 96® AQueous One Solution or CellTiter-Glo® Cell Proliferation kit (Promega), following the manufacturer's instructions. […] The proliferative capacity of cells cultured in CSS medium without DHT is 17% of untreated control levels.

PSA mRNA = assay: PSA expression in VCaP cells; conditions: 48 hrs
Procedure: (§1) Cells were plated at 10,000 cells per well. […] After an incubation period of 48 hrs, RNA levels of full length AR, the V7 variant, PSA and TMPRSS2 were measured.
(§2) After an incubation period of 48 hrs, RNA levels of full length AR, the V7 variant, PSA and TMPRSS2 were measured. The data is presented in Tables 108 expressed as percent expression of gene levels compared to the untreated control.
(§3) Cells were plated at 15,000 cells per well and cultured in CSS media for 16 hours. […] After 4 hrs, 1 nM DHT was added. […] After an incubation period of 48 hrs, RNA levels of AR, PSA and TMPRSS2 were measured.

TMPRSS2 mRNA [2] = assay: TMPRSS2 expression in VCaP cells; conditions: 48 hrs
Procedure: as §1, §2, §3

TMPRSS2 mRNA [3] = assay: TMPRSS2 expression in 22RV1 cells; conditions: 48 hrs
Procedure: Cells were plated at 1,000 cells per well. […] After an incubation period of 48 hrs, RNA levels of full length AR, the V7 variant, PSA and TMPRSS2 were measured.
After an incubation period of 48 hrs, RNA levels of full length AR, the V7 variant, PSA and TMPRSS2 were measured.
Cells were plated at 2,000 cells per well and cultured in CSS media for 16 hours. […] After 4 hrs, 1 nM DHT was added. […] After an incubation period of 48 hrs, RNA levels of AR, AR V7 variant, PSA and TMPRSS2 were measured.

CNC(=O)c1ccc(N2C(=S)N(c3ccc(C#N)c(C(F)(F)F)c3)C(=O)C2(C)C)cc1F [MDV3100, 4-(3-(4-cyano-3-(trifluoromethyl)phenyl)-5,5-dimethyl-4-oxo-2-thioxoimidazolidin-1-yl)-2-fluoro-N-methylbenzamide, reference compound]
AR mRNA levels (% baseline value) after treatment with DHT (AR mRNA; ASO 0.04 μM): 105 % baseline value | AR mRNA levels (% baseline value) after treatment with DHT (AR mRNA; ASO 0.20 μM): 124 % baseline value | AR mRNA levels (% baseline value) after treatment with DHT (AR mRNA; ASO 1.0 μM): 110 % baseline value | AR mRNA levels (% baseline value) after treatment with DHT (AR mRNA; ASO 5.0 μM): 143 % baseline value | AR mRNA levels (% baseline value) after treatment with R1881 (AR mRNA; ASO 0.04 μM): 94 % baseline value | AR mRNA levels (% baseline value) after treatment with R1881 (AR mRNA; ASO 0.20 μM): 107 % baseline value | AR mRNA levels (% baseline value) after treatment with R1881 (AR mRNA; ASO 1.0 μM): 115 % baseline value | AR mRNA levels (% baseline value) of cells without AR agonist treatment (AR mRNA; ASO 0.04 μM): 106 % baseline value | AR mRNA levels (% baseline value) of cells without AR agonist treatment (AR mRNA; ASO 0.20 μM): 101 % baseline value | AR mRNA levels (% baseline value) of cells without AR agonist treatment (AR mRNA; ASO 1.0 μM): 99 % baseline value | AR mRNA levels (% baseline value) of cells without AR agonist treatment (AR mRNA; ASO 5.0 μM): 92 % baseline value | AR mRNA levels in LMR20 cells (AR mRNA; with or without DHT/R1881): increased the levels of AR mRNA in cells treated with AR agonist | PSA mRNA levels (% baseline value) after treatment with DHT ([1]; ASO 0.04 μM): 124 % baseline value | PSA mRNA levels (% baseline value) after treatment with DHT ([1]; ASO 0.20 μM): 108 % baseline value | PSA mRNA levels (% baseline value) after treatment with DHT ([1]; ASO 1.0 μM): 95 % baseline value | PSA mRNA levels (% baseline value) after treatment with DHT ([1]; ASO 5.0 μM): 95 % baseline value | PSA mRNA levels (% baseline value) after treatment with R1881 ([1]; ASO 0.04 μM): 84 % baseline value | PSA mRNA levels (% baseline value) after treatment with R1881 ([1]; ASO 0.20 μM): 101 % baseline value | PSA mRNA levels (% baseline value) after treatment with R1881 ([1]; ASO 1.0 μM): 92 % baseline value | PSA mRNA levels (% baseline value) after treatment with R1881 ([1]; ASO 5.0 μM): 87 % baseline value | PSA mRNA levels (% baseline value) of cells without AR agonist treatment ([1]; ASO 0.04 μM): 98 % baseline value | PSA mRNA levels (% baseline value) of cells without AR agonist treatment ([1]; ASO 0.20 μM): 93 % baseline value | PSA mRNA levels (% baseline value) of cells without AR agonist treatment ([1]; ASO 1.0 μM): 90 % baseline value | PSA mRNA levels (% baseline value) of cells without AR agonist treatment ([1]; ASO 5.0 μM): 113 % baseline value | PSA mRNA levels in LMR20 cells ([1]; with or without DHT/R1881): did not reduce either PSA or TMPRSS2 mRNA levels | inhibition at 0.08 µM (LNCaP cells): 7% | Proliferation (% untreated control) (C4-2 cells; CSS + DHT medium, 0.04 μM): 122 % untreated control | Proliferation (% untreated control) (C4-2 cells; CSS + DHT medium, 0.2 μM): 124 % untreated control | Proliferation (% untreated control) (C4-2 cells; CSS + DHT medium, 1 μM): 87 % untreated control | Proliferation (% untreated control) (C4-2 cells; CSS + DHT medium, 5.0 μM): 22 % untreated control | Proliferation (% untreated control) (C4-2 cells; complete medium, 0.04 μM): 105 % untreated control | Proliferation (% untreated control) (C4-2 cells; complete medium, 0.2 μM): 108 % untreated control | Proliferation (% untreated control) (C4-2 cells; complete medium, 1 μM): 71 % untreated control | Proliferation (% untreated control) (C4-2 cells; complete medium, 5.0 μM): 67 % untreated control | proliferation of C4-2 cells (C4-2 cells; complete medium or CSS+1 nM DHT): reduced proliferation of the cells in a dose dependent manner compared to the control | Percent of gene expression, PSA (PSA mRNA; CSS + DHT medium, 0.04 μM): 90% | Percent of gene expression, PSA (PSA mRNA; CSS + DHT medium, 0.2 μM): 72% | Percent of gene expression, PSA (PSA mRNA; CSS + DHT medium, 1.0 μM): 57% | Percent of gene expression, PSA (PSA mRNA; CSS + DHT medium, 5.0 μM): 30% | Percent of gene expression, PSA (PSA mRNA; complete medium, 0.04 μM): 105% | Percent of gene expression, PSA (PSA mRNA; complete medium, 0.2 μM): 76% | Percent of gene expression, PSA (PSA mRNA; complete medium, 1.0 μM): 75% | Percent of gene expression, PSA (PSA mRNA; complete medium, 5.0 μM): 61% | Percent of gene expression, TMPRSS2 (TMPRSS2 mRNA [2]; CSS + DHT medium, 0.04 μM): 115% | Percent of gene expression, TMPRSS2 (TMPRSS2 mRNA [2]; CSS + DHT medium, 0.2 μM): 96% | Percent of gene expression, TMPRSS2 (TMPRSS2 mRNA [2]; CSS + DHT medium, 1.0 μM): 70% | Percent of gene expression, TMPRSS2 (TMPRSS2 mRNA [2]; CSS + DHT medium, 5.0 μM): 42% | Percent of gene expression, TMPRSS2 (TMPRSS2 mRNA [2]; complete medium, 0.04 μM): 131% | Percent of gene expression, TMPRSS2 (TMPRSS2 mRNA [2]; complete medium, 0.2 μM): 121% | Percent of gene expression, TMPRSS2 (TMPRSS2 mRNA [2]; complete medium, 5.0 μM): 141% | Percent of gene expression, TMPRSS2 (TMPRSS2 mRNA [3]; CSS + DHT medium, 0.04 μM): 17% | Percent of gene expression, TMPRSS2 (TMPRSS2 mRNA [3]; CSS + DHT medium, 0.2 μM): 9% | Percent of gene expression, TMPRSS2 (TMPRSS2 mRNA [3]; CSS + DHT medium, 1.0 μM): 26% | Percent of gene expression, TMPRSS2 (TMPRSS2 mRNA [3]; CSS + DHT medium, 5.0 μM): 18% | Percent of gene expression, TMPRSS2 (TMPRSS2 mRNA [3]; complete medium, 0.04 μM): 101% | Percent of gene expression, TMPRSS2 (TMPRSS2 mRNA [3]; complete medium, 0.2 μM): 80% | Percent of gene expression, TMPRSS2 (TMPRSS2 mRNA [3]; complete medium, 1.0 μM): 82% | Percent of gene expression, TMPRSS2 (TMPRSS2 mRNA [3]; complete medium, 5.0 μM): 93%
